{"source": "paper PMC6273209", "about": "“Evaluation of the Enantiomer Specific Biokinetics and Radiation Doses of [^18F]Fluspidine—A New Tracer in Clinical Translation for Imaging of σ1 Receptors” (Molecules, 2016)", "key": {"σ1 receptors": {"test_system": "σ1 receptors", "design": "method as in PMID 25071097", "conditions": "σ1-rich areas of the porcine brain; cited from earlier work"}, "[1]": {"experiment": "First-in-human PET/CT dosimetry study", "type": "in vivo", "conditions": "for ED: first-in-human (clinical)", "description": "The first-in-human use of (S)-(−)-[^18F]fluspidine was authorized by the competent authorities in Germany, the Federal Institute for Drugs and Medical Devices (Bundesamt für Arzneimittel und Medizinprodukte, BfArM) and the Federal Office for Radiation Protection (Bundesamt für Strahlenschutz, BfS) as well as by the local ethics committee and was conducted in accordance with the Declaration of Helsinki. Informed consent was obtained from four healthy volunteers (2 f, 2 m; age: 23 ± 3 years; weight: 56 ± 4 kg). The volunteers were positioned supine with the arms down in a clinical PET/CT system (Biograph 16, Siemens, Erlangen, Germany) and received an intravenous injection of 255 ± 9 MBq (S)-(−)-[^18F]fluspidine. Simultaneously, the PET scan was started. It was divided into a dynamic part up to 2 h p.i. (7 frames) and a static part up to 7 h p.i. The volunteers left the investigation table four times to stretch out. All urine was collected, weighed, and the activity was determined in a gamma-counter (Packard Cobra II 5003 Auto Gamma Counting System, GMI, Ramsey, MN, USA) cross calibrated to the PET/CT system.\nThe PET images were iteratively (ordered-subsets expectation maximization, OSEM) reconstructed (preclinical: 4 iterations, 6 subsets; clinical: 4 iterations, 8 subsets) and corrected for decay, randoms, scatter, and dead time, μ-maps for attenuation correction of PET-emission data were derived from the CT or MR [49] structural data, respectively. The PET data were re-binned into 10 time frames (preclinical: 4 × 5 min, 1 × 10 min, and 5 × 15 min; clinical: 4 × 12 min, 3 × 16 min, 1 × 32 min, 1 × 40 min, and 1 × 48 min), and the reconstructed PET/MRI and PET/CT images were co-registered manually with ROVER (ABX, advanced chemical compounds, Radeberg, Germany, version 2.1.17). Quantitative evaluation was performed by drawing volumes of interest (VOI) for brain, gallbladder, large intestine, small intestine, stomach, heart, kidneys, liver, lungs, pancreas, red marrow (backbone, pelvis, sternum), spleen, thyroid, testes, and urinary bladder (Figure S4). The PET derived biokinetic data is expressed as percentage of injected activity (dose) per cubic centimeter (%ID/cm^3).\nThe human dosimetry estimation was performed with the data extrapolated as well as the genuine human data using OLINDA/EXM software. The time-activity curves were estimated by exponential fitting and calculating the time integral, which equals the number of disintegrations (NODs) per organ during the observation period normalized to 1 Becquerel administered activity dose. […] Therefore, activity data of the urinary bladder was derived from the image for each time point. In contrast, for humans the activity concentration data of the urinary bladder was obtained in a more direct approach. At first, the activity and volume of urine was determined in the last frame of the PET scan before each micturition. Afterwards, the voided urine was collected, weighed, and the activity of three aliquots (assuming 1 mL = 1 g) determined with a gamma counter, and the activity of the whole sample estimated. The difference between imaged and sampled urine activity is equal to the residue of radioactive urine in the urinary bladder. To calculate the NOD in the human urinary bladder, the time-activity curve is integrated using a trapezoidal equation (3) %ID˜UB=1/2∑i=1n−1(%IDi+%IDi+1)(ti+1−ti) with the fraction of injected activity %IDi at the time ti and the cumulated activity of the urinary bladder i.e., the NOD %ID˜UB .\nFurthermore, the NODs of the gastric system were calculated following the ICRP GI model (ICRP 30) as implemented in OLINDA 1.0. The NODs obtained either from the EXM module or the trapezoidal equation were transferred to OLINDA. The OD for the chosen hermaphroditic adult male phantom is estimated following the MIRD scheme. The S values are pre-calculated and implemented for the respective phantom in OLINDA. […]"}, "[2]": {"conditions": "first-in-human PET/CT, adult male model"}, "[3]": {"conditions": "first-in-human PET/CT, ICRP 103 weighting"}, "[4]": {"conditions": "four volunteers after i.v. injection"}}, "data": [{"compound": "[18F]CC[C@H]1OC2(CCN(Cc3ccccc3)CC2)c2ccccc21", "note": "[(R)-(+)-[^18F]fluspidine]", "values": [{"measurement": "binding potential (BPnd), fold higher in comparison to (S)-(−)-[^18F]fluspidine", "setting": "σ1 receptors", "value": "5- to 10 fold"}]}, {"compound": "FCC[C@@H]1OC2(CCN(Cc3ccccc3)CC2)c2ccccc21", "note": "[(S)-(−)-[^18F]fluspidine]", "values": [{"measurement": "ED", "setting": "[1]; four healthy volunteers, ICRP 103 weighting", "value": "21.0 ± 1.3", "unit": "μSv/MBq"}, {"measurement": "ED", "setting": "[1]; four healthy volunteers, ICRP 103 weighting, listed as (S)-(−)-[^18F]Fluspidine", "value": 21.0, "unit": "μSv/MBq"}, {"measurement": "OD Adrenals", "setting": "[1]; [2]", "value": 15.3, "unit": "μSv/MBq"}, {"measurement": "OD Brain", "setting": "[1]; [2]", "value": 22.6, "unit": "μSv/MBq"}, {"measurement": "OD Breasts", "setting": "[1]; [2]", "value": 6.5, "unit": "μSv/MBq"}, {"measurement": "OD Gallbladder Wall", "setting": "[1]; [2]", "value": 60.7, "unit": "μSv/MBq"}, {"measurement": "OD Heart Wall", "setting": "[1]; [2]", "value": 17.7, "unit": "μSv/MBq"}, {"measurement": "OD Kidneys", "setting": "[1]; [2]", "value": 31.1, "unit": "μSv/MBq"}, {"measurement": "OD LLI Wall", "setting": "[1]; [2]", "value": 16.6, "unit": "μSv/MBq"}, {"measurement": "OD Liver", "setting": "[1]; [2]", "value": 76.0, "unit": "μSv/MBq"}, {"measurement": "OD Lungs", "setting": "[1]; [2]", "value": 28.2, "unit": "μSv/MBq"}, {"measurement": "OD Muscle", "setting": "[1]; [2]", "value": 7.8, "unit": "μSv/MBq"}, {"measurement": "OD Osteogenic Cells", "setting": "[1]; [2]", "value": 18.0, "unit": "μSv/MBq"}, {"measurement": "OD Ovaries", "setting": "[1]; [2]", "value": 13.8, "unit": "μSv/MBq"}, {"measurement": "OD Pancreas", "setting": "[1]; [2]", "value": 15.9, "unit": "μSv/MBq"}, {"measurement": "OD Red Marrow", "setting": "[1]; [2]", "value": 23.2, "unit": "μSv/MBq"}, {"measurement": "OD Skin", "setting": "[1]; [2]", "value": 5.3, "unit": "μSv/MBq"}, {"measurement": "OD Small Intestine", "setting": "[1]; [2]", "value": 56.9, "unit": "μSv/MBq"}, {"measurement": "OD Spleen", "setting": "[1]; [2]", "value": 24.0, "unit": "μSv/MBq"}, {"measurement": "OD Stomach Wall", "setting": "[1]; [2]", "value": 31.5, "unit": "μSv/MBq"}, {"measurement": "OD Testes", "setting": "[1]; [2]", "value": 8.0, "unit": "μSv/MBq"}, {"measurement": "OD Thymus", "setting": "[1]; [2]", "value": 7.5, "unit": "μSv/MBq"}, {"measurement": "OD Thyroid", "setting": "[1]; [2]", "value": 8.4, "unit": "μSv/MBq"}, {"measurement": "OD Total Body", "setting": "[1]; [2]", "value": 11.4, "unit": "μSv/MBq"}, {"measurement": "OD ULI Wall", "setting": "[1]; [2]", "value": 24.3, "unit": "μSv/MBq"}, {"measurement": "OD Urinary Bladder Wall", "setting": "[1]; [2]", "value": 24.7, "unit": "μSv/MBq"}, {"measurement": "OD Uterus", "setting": "[1]; [2]", "value": 13.0, "unit": "μSv/MBq"}, {"measurement": "ED Contr. Adrenals", "setting": "[1]; [3]", "value": 0.1, "unit": "μSv/MBq"}, {"measurement": "ED Contr. Brain", "setting": "[1]; [3]", "value": 0.2, "unit": "μSv/MBq"}, {"measurement": "ED Contr. Breasts", "setting": "[1]; [3]", "value": 0.8, "unit": "μSv/MBq"}, {"measurement": "ED Contr. Gallbladder Wall", "setting": "[1]; [3]", "value": 0.5, "unit": "μSv/MBq"}, {"measurement": "ED Contr. Heart Wall", "setting": "[1]; [3]", "value": 0.2, "unit": "μSv/MBq"}, {"measurement": "ED Contr. Kidneys", "setting": "[1]; [3]", "value": 0.3, "unit": "μSv/MBq"}, {"measurement": "ED Contr. LLI Wall", "setting": "[1]; [3]", "value": 1.0, "unit": "μSv/MBq"}, {"measurement": "ED Contr. Liver", "setting": "[1]; [3]", "value": 3.0, "unit": "μSv/MBq"}, {"measurement": "ED Contr. Lungs", "setting": "[1]; [3]", "value": 3.4, "unit": "μSv/MBq"}, {"measurement": "ED Contr. Muscle", "setting": "[1]; [3]", "value": 0.1, "unit": "μSv/MBq"}, {"measurement": "ED Contr. Osteogenic Cells", "setting": "[1]; [3]", "value": 0.2, "unit": "μSv/MBq"}, {"measurement": "ED Contr. Ovaries", "setting": "[1]; [3]", "value": 1.0, "unit": "μSv/MBq"}, {"measurement": "ED Contr. Pancreas", "setting": "[1]; [3]", "value": 0.1, "unit": "μSv/MBq"}, {"measurement": "ED Contr. Red Marrow", "setting": "[1]; [3]", "value": 2.8, "unit": "μSv/MBq"}, {"measurement": "ED Contr. Skin", "setting": "[1]; [3]", "value": 0.1, "unit": "μSv/MBq"}, {"measurement": "ED Contr. Small Intestine", "setting": "[1]; [3]", "value": 0.5, "unit": "μSv/MBq"}, {"measurement": "ED Contr. Spleen", "setting": "[1]; [3]", "value": 0.2, "unit": "μSv/MBq"}, {"measurement": "ED Contr. Stomach Wall", "setting": "[1]; [3]", "value": 3.8, "unit": "μSv/MBq"}, {"measurement": "ED Contr. Testes", "setting": "[1]; [3]", "value": 0.8, "unit": "μSv/MBq"}, {"measurement": "ED Contr. Thymus", "setting": "[1]; [3]", "value": 0.1, "unit": "μSv/MBq"}, {"measurement": "ED Contr. Thyroid", "setting": "[1]; [3]", "value": 0.3, "unit": "μSv/MBq"}, {"measurement": "ED Contr. Total Body", "setting": "[1]; [3]", "value": 0.0, "unit": "μSv/MBq"}, {"measurement": "ED Contr. ULI Wall", "setting": "[1]; [3]", "value": 1.5, "unit": "μSv/MBq"}, {"measurement": "ED Contr. Urinary Bladder Wall", "setting": "[1]; [3]", "value": 1.0, "unit": "μSv/MBq"}, {"measurement": "ED Contr. Uterus", "setting": "[1]; [3]", "value": 0.1, "unit": "μSv/MBq"}, {"measurement": "ED ICRP 60", "setting": "[1]; first-in-human, four healthy volunteers, ICRP 60 weighting", "value": 22.1, "unit": "μSv/MBq"}, {"measurement": "adverse effects", "setting": "[1]; [4]", "value": "no adverse effects reported"}, {"measurement": "changes in vital signs", "setting": "[1]; [4]", "value": "no significant changes in vital signs"}, {"measurement": "clearance of the radioligand from organs", "setting": "[1]; human TACs, brain, stomach, liver, spleen", "value": "rapidly removed from brain, stomach, liver, and spleen within one hour post injection"}, {"measurement": "actual ED from the human study in comparison to the extrapolated animal data", "setting": "[1]; human vs extrapolated animal data, p < 0.001", "value": 1.6, "unit": "fold"}]}]}
